In patent US11981677B2, “Further substituted triazolo quinoxaline derivatives” (Grünenthal GmbH, priority 2018, dated 2024):

target: T1, Glucocorticoid Receptor (Homo sapiens, UniProt P04150); assay: Agonistic mode of action on the glucocorticoid receptor (CHO-Gal4/GR luciferase reporter cell line); type: cell-based; settings: CHO-Gal4/GR luciferase reporter cells; observed in the agonistic assay or the antagonistic assay (mode not given); read-out: IC50 or EC50 range
T1 construct: expressed in transfected cells
T1 sequence (P04150 524-758 limits assumed): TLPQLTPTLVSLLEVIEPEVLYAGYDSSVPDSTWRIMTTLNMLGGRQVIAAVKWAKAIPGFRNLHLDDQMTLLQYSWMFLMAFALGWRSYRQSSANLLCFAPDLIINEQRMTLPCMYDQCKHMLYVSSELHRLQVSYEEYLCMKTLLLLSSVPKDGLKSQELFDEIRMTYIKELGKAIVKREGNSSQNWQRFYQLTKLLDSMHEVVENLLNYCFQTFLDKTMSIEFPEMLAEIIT
Method in brief: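 CHO cells stably expressing GAL4 DBD–GR ligand-binding domain fusion with GAL4-UAS firefly luciferase reporter, seeded 24 h, then treated in Opti-MEM with 8 half-log concentrations from 10 μM to 0.003 μM (0.5% DMSO), quadruplicate. Luminescence read on FLIPR after lysis with Triton/luciferin; EC50 calculated.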

IC50 or EC50 (antagonist or agonist mode, not stated per compound)	SMILES
< 100 nM	COc1c(-c2cc(F)cc3c2ccn3S(C)(=O)=O)c(F)c(F)c2c1-n1c(C)nnc1C(C)(C)N2 [Example 498, 6,7-Difluoro-8-(6-fluoro-1-methylsulfonyl-1H-indol-4-yl)-9-methoxy-1,4,4-trimethyl-5H-[1,2,4]triazolo[4,3-a]quinoxaline]
100 to 1000 nM	COc1c(-c2cccc3c2ccn3S(C)(=O)=O)c(F)c(F)c2c1-n1c(C)nnc1C(C)(C)N2 [Example 499, 6,7-Difluoro-9-methoxy-1,4,4-trimethyl-8-(1-methylsulfonyl-1H-indol-4-yl)-5H-[1,2,4]triazolo[4,3-a]quinoxaline]
100 to 1000 nM	Cc1nnc2n1-c1c(c(F)c(F)c(-c3cccc4c3ccn4S(C)(=O)=O)c1C(F)(F)F)NC2(C)C [Example 500, 6,7-difluoro-1,4,4-trimethyl-8-(1-(methylsulfonyl)-1H-indol-4-yl)-9-(trifluoromethyl)-4,5-dihydro-[1,2,4]triazolo[4,3-a]quinoxaline]
100 to 1000 nM	COc1c(-c2cc(F)cc3c2cnn3S(C)(=O)=O)c(F)c(F)c2c1-n1c(C)nnc1C(C)(C)N2 [Example 501, 6,7-Difluoro-8-(6-fluoro-1-methylsulfonyl-1H-indazol-4-yl)-9-methoxy-1,4,4-trimethyl-5H-[1,2,4]triazolo[4,3-a]quinoxaline]
< 100 nM	Cc1c(-c2cccc3c2ccn3S(C)(=O)=O)c(F)c(Cl)c2c1-n1c(C)nnc1C(C)(C)N2 [Example 502, 6-Chloro-7-fluoro-1,4,4,9-tetramethyl-8-(1-methylsulfonyl-1H-indol-4-yl)-5H-[1,2,4]triazolo[4,3-a]quinoxaline]
1000 to 15000 nM	Cc1c(-c2cc(F)cc3c2ccn3S(C)(=O)=O)c(F)c(Cl)c2c1-n1c(C)nnc1C(C)(C)N2 [Example 503, 6-Chloro-7-fluoro-8-(6-fluoro-1-methylsulfonyl-1H-indol-4-yl)-1,4,4,9-tetramethyl-5H-[1,2,4]triazolo[4,3-a]quinoxaline]
100 to 1000 nM	Cc1c(-c2cccc3[nH]ncc23)cc(F)c2c1-n1c(C)nnc1C(C)(C)N2 [Example 504, 6-Fluoro-8-(1H-indazol-4-yl)-1,4,4,9-tetramethyl-5H-[1,2,4]triazolo[4,3-a]quinoxaline]
100 to 1000 nM	COc1c(-c2cccc3c2ccn3S(=O)(=O)C2CC2)cc(F)c2c1-n1c(C)nnc1C(C)(C)N2 [Example 505, 8-[1-(Cyclopropylsulfonyl)-1H-indol-4-yl]-6-fluoro-9-methoxy-1,4,4-trimethyl-5H-[1,2,4]triazolo[4,3-a]quinoxaline]
100 to 1000 nM	Cc1c(-c2cc(Cl)cc3[nH]ccc23)cc(F)c2c1-n1c(C)nnc1C(C)(C)N2 [Example 506, 8-(6-Chloro-1H-indol-4-yl)-6-fluoro-1,4,4,9-tetramethyl-5H-[1,2,4]triazolo[4,3-a]quinoxaline]
100 to 1000 nM	Cc1c(-c2cc(C(F)(F)F)cc3[nH]ncc23)cc(F)c2c1-n1c(C)nnc1C(C)(C)N2 [Example 507, 6-Fluoro-1,4,4,9-tetramethyl-8-[6-(trifluoromethyl)-1H-indazol-4-yl]-5H-[1,2,4]triazolo[4,3-a]quinoxaline]
100 to 1000 nM	Cc1c(-c2cc(F)cc3c(C)c[nH]c23)c(F)c(Cl)c2c1-n1c(C)nnc1C(C)(C)N2 [Example 508, 6-Chloro-7-fluoro-8-(5-fluoro-3-methyl-1H-indol-7-yl)-1,4,4,9-tetramethyl-5H-[1,2,4]triazolo[4,3-a]quinoxaline]
100 to 1000 nM	Cc1c(-c2cccc3c2cnn3S(C)(=O)=O)c(F)c(Cl)c2c1-n1c(C)nnc1C(C)(C)N2 [Example 509, 6-Chloro-7-fluoro-1,4,4,9-tetramethyl-8-(1-methylsulfonyl-1H-indazol-4-yl)-5H-[1,2,4]triazolo[4,3-a]quinoxaline]

The next lines start with the compound.

SMILES	IC50 or EC50 (antagonist or agonist mode, not stated per compound)
COc1c(-c2cc(F)cc3[nH]ccc23)cc(Cl)c2c1-n1c(C)nnc1C(C)(C)N2 [Example 488, 6-Chloro-8-(6-fluoro-1H-indol-4-yl)-9-methoxy-1,4,4-trimethyl-5H-[1,2,4]triazolo[4,3-a]quinoxaline]	< 100 nM
COc1c(-c2ccc(F)c3[nH]ncc23)cc(F)c2c1-n1c(C)nnc1C(C)(C)N2 [Example 489, 6-Fluoro-8-(7-fluoro-1H-indazol-4-yl)-9-methoxy-1,4,4-trimethyl-5H-[1,2,4]triazolo[4,3-a]quinoxaline]	100 to 1000 nM
Cc1c(-c2ccc(F)c3[nH]ccc23)cc(F)c2c1-n1c(C)nnc1C(C)(C)N2 [Example 490, 6-fluoro-8-(7-fluoro-1H-indol-4-yl)-1,4,4,9-tetramethyl-4,5-dihydro-[1,2,4]triazolo[4,3-a]quinoxaline]	100 to 1000 nM
Cc1c(-c2cccc3c2ccn3S(=O)(=O)CC2CC2)cc(F)c2c1-n1c(C)nnc1C(C)(C)N2 [Example 491, 8-[1-(Cyclopropyl-methylsulfonyl)-1H-indol-4-yl]-6-fluoro-1,4,4,9-tetramethyl-5H-[1,2,4]triazolo[4,3-a]quinoxaline]	< 100 nM
COc1c(-c2cc(C(F)(F)F)cc3c2ccn3S(C)(=O)=O)cc(F)c2c1-n1c(C)nnc1C(C)(C)N2 [Example 492, 6-Fluoro-9-methoxy-1,4,4-trimethyl-8-[1-methylsulfonyl-6-(trifluoromethyl)-1H-indol-4-yl]-5H-[1,2,4]triazolo[4,3-a]quinoxaline]	100 to 1000 nM
COc1c(-c2cc(F)cc3c2cnn3S(C)(=O)=O)cc(Cl)c2c1-n1c(C)nnc1C(C)(C)N2 [Example 493, 6-Chloro-8-(6-fluoro-1-methylsulfonyl-1H-indazol-4-yl)-9-methoxy-1,4,4-trimethyl-5H-[1,2,4]triazolo[4,3-a]quinoxaline]	100 to 1000 nM
COc1c(-c2ccc(F)c3[nH]ccc23)cc(F)c2c1-n1c(C)nnc1C(C)(C)N2 [Example 494, 6-Fluoro-8-(7-fluoro-1H-indol-4-yl)-9-methoxy-1,4,4-trimethyl-5H-[1,2,4]triazolo[4,3-a]quinoxaline]	100 to 1000 nM
COc1c(-c2cc(F)cc3[nH]ncc23)cc(F)c2c1-n1c(C)nnc1C(C)(C)N2 [Example 495, 6-Fluoro-8-(6-fluoro-1H-indazol-4-yl)-9-methoxy-1,4,4-trimethyl-5H-[1,2,4]triazolo[4,3-a]quinoxaline]	100 to 1000 nM
Cc1c(-c2cc(F)cc3[nH]ncc23)cc(F)c2c1-n1c(C)nnc1C(C)(C)N2 [Example 496, 6-Fluoro-8-(6-fluoro-1H-indazol-4-yl)-1,4,4,9-tetramethyl-5H-[1,2,4]triazolo[4,3-a]quinoxaline]	100 to 1000 nM
Cc1c(-c2cc(F)cc3c2ccn3S(=O)(=O)CC2CC2)cc(F)c2c1-n1c(C)nnc1C(C)(C)N2 [Example 497, 8-[1-(Cyclopropyl-methylsulfonyl)-6-fluoro-1H-indol-4-yl]-6-fluoro-1,4,4,9-tetramethyl-5H-[1,2,4]triazolo[4,3-a]quinoxaline]	< 100 nM
